The source of these data is publication PMC10974290, “Biocatalytic Synthesis of Coumarin S-Glycosides: Towards Non-Cytotoxic Probes for Biomedical Imaging and Sensing” (Molecules, 2024).

The test system of one data set is A-549 (lung carcinoma). The experiment in a line: MTT cell proliferation assay, A-549. Type of data set: cell-based, human. Conditions: 72 h incubation, 95% confidence interval in parentheses. The method, then:
To use these S-glycosidic compounds in cellulo, the potential impact of the glycosidic linkage nature on the anticancer activity was assessed. The S-glycoside derivatives and the 7-MC were tested against four human cancer cell lines and a healthy one, namely A549 (lung carcinoma), HS-683 (glioma cancer), MCF-7 (breast adenocarcinoma), SK-MEL-28 (melanoma skin cancer), and HaCaT (keratinocyte normal skin), using MTT (thiazolyl blue tetrazolium bromide, Sigma-Aldrich, St. Louis, MO, USA) assay, as previously described in the literature.
Cell proliferation of five distinct cell lines was evaluated using the colorimetric MTT (thiazolyl blue tetrazolium bromide, Sigma) assay. Human keratinocyte normal skin HaCaT was cultivated in DMEM supplemented with 4.5 g/L glucose, 2 mM L-glutamine, and 10% FBS. Cancer cell lines and their respective growth media were obtained from CLS Cell Line Service GmbH (Eppelheim, Germany). Specifically, human skin melanoma SK-MEL-28 and human brain glioma HS683 were cultivated in DMEM with identical supplements as HaCaT cells. The human lung carcinoma cell line A-549 was grown in DMEM/Ham’s F12 (1:1) medium supplemented with 2 mM L-glutamine and 5% FBS. Additionally, human breast adenoma carcinoma MCF-7 cells were sustained in EMEM supplemented with 2 mM L-glutamine, sodium pyruvate, non-essential amino acids (NEAAs), 10 µg/mL insulin human, and 10% FBS. The MTT assay relies on the reduction of the yellow product thiazolyl blue tetrazolium bromide (MTT) to formazan, a purple-blue product, by mitochondrial dehydrogenases in metabolically active cells. The number of living cells after incubation in the presence (or absence, control) of the tested molecules is directly proportional to the blue color, which was measured by spectrophotometry. To perform the assay, cells were initially seeded at a density of 2500 cells/mL in 96-well culture plates (Nunc™ Edge 2.0, Fisher) and allowed to adhere and proliferate over a 24-hour incubation period. Following this, the cells were treated with various concentrations of the tested compounds, which were previously prepared as serial dilutions and dissolved in 0.1% DMSO. […] Each concentration of the tested compounds underwent triplicate testing (n = 3), and cells were subsequently incubated for 72 h to allow for thorough evaluation. Following this incubation period, MTT reagent (5 mg/mL solution in PBS) was introduced to each well (10% v/v), and cells were further incubated for 4 h. Then, the culture medium was carefully removed, and the resulting blue formazan crystals were dissolved in 100 µL of 100% DMSO. Absorbance readings were taken at 540 nm, referencing a wavelength of 620 nm, using a spectrophotometer. In determining the IC50, the absorbance of serial dilutions of each cell line, treated under identical conditions but without the presence of the tested compounds, was measured.

The nature of data set [1]: Fluorescence excitation/emission spectroscopy and relative quantum yield. Format: physicochemical. Conditions: 7-MC in presence of 10 mM DTT; for Fluorescence λmax ex: emission at 420 nm; for Fluorescence λmax em: excitation at 280 nm; for Relative quantum yield Φ: relative to 4-MUB in DMF. The protocol:
The values determined were close to those observed for the 4-MUB fluorophore.
Both absorbance and fluorescence spectra were measured on a Tecan […] M PLEX 200 Pro plate reader equipped with monochromator allowing a scan from 230 to 1000 nm. […] The solutions were then transferred to a Corning (Corning, NY, USA) UV-transparent 96-well plate. Absorbance spectra were recorded from 230 to 800 nm. Emission fluorescence spectra were recorded from 320 to 800 nm, under excitation at 280 nm. Excitation fluorescence spectra were recorded from 230 to 380 nm for an emission at 420 nm. All spectra were recorded with a wavelength step size of 2 nm. Data processing was performed with Excel software 2016. Fluorescence spectra are presented as normalized spectra ranging from 0 to 1. The relative quantum yields were calculated according to Equation (1):(1) ΦT=(AR/AT)×(FT/FR)×(nT/nR)×ΦR where Φ is the fluorescence quantum yield, A is the absorbance at the excitation wavelength, F is the area under the corrected emission curve, and n is the refractive index of the solvent for the test compound (T) and the reference (R). The 4-MUB value in DMF was used as the reference. The LOD (resp. LOQ) values were determined as the minimal concentration of product S-3 required to yield a fluorescence that was twice greater than (respectively, 5-times that of) the fluorescence noise on a sample containing PBS, using an excitation wavelength of 280 nm and an emission wavelength of 386 nm (Figure S44).

Bounds are passed on as bounds.

As for `Cc1cc(=O)oc2cc(S)ccc12` [Compound 7-MC, 7-mercapto-4-methylcoumarin, reference compound], the IC50 (usually the concentration that inhibits the measured activity by half) with A-549 (lung carcinoma) (Homo sapiens, A549, 72 h) was over 1000 µM. The “Fluorescence λmax ex” value in data set [1] (DMF, 0.1 mM) is reported as 334 nm; in data set [1] (PBS pH 7.4, 0.1 mM), 321 nm. Besides, the “Fluorescence λmax em” value is listed as 392 nm in data set [1] (DMF, 0.1 mM) and 448 nm in data set [1] (PBS pH 7.4, 0.1 mM). Also, the results for the “Relative quantum yield Φ” value in data set [1] (DMF) and in data set [1] (PBS) were 0.009 and 0.020, respectively.

With `Cc1cc(=O)oc2cc(S[C@@H]3O[C@H](C(=O)O)[C@@H](O)[C@H](O)[C@H]3O)ccc12` [Compound S-1, 4-Methylumbellifer-7-yl 1-thio-β-D-glucopyranosiduronic acid], the IC50 in the data set with A-549 (lung carcinoma) (Homo sapiens, A549, 72 h) was over 1000 µM. Further, the “Fluorescence λmax ex” value is listed as 332 nm in data set [1] (DMF, 0.1 mM) and 332 nm in data set [1] (PBS pH 7.4, 0.1 mM). The “Fluorescence λmax em” value in data set [1] (DMF, 0.1 mM) came out at 390 nm; in data set [1] (PBS pH 7.4, 0.1 mM), 402 nm. For the same compound, the results for the “Relative quantum yield Φ” value in data set [1] (DMF) and in data set [1] (PBS) were 0.182 and 0.235, respectively.

As to `Cc1cc(=O)oc2cc(S[C@@H]3OC[C@@H](O)[C@H](O)[C@H]3O)ccc12` [Compound S-2, 4-Methylumbellifer-7-yl 1-thio-β-D-xylopyranoside], the IC50 with A-549 (lung carcinoma) was 74.8 µM; in the data set on A-549 (lung carcinoma) (Homo sapiens, A549, 72 h), 74 µM. Also, the “Fluorescence λmax ex” value stood at 332 nm in data set [1] (DMF, 0.1 mM) and 326 nm in data set [1] (PBS pH 7.4, 0.1 mM). Also, the “Fluorescence λmax em” value in data set [1] (DMF, 0.1 mM) worked out at 386 nm; in data set [1] (PBS pH 7.4, 0.1 mM), 402 nm. For the same compound, the “Relative quantum yield Φ” value in data set [1] (DMF) was found to be 0.186; in data set [1] (PBS), 0.181.

As to `Cc1cc(=O)oc2cc(S[C@@H]3O[C@H](CO)[C@@H](O)[C@H](O)[C@H]3O)ccc12` [Compound S-3, 4-Methylumbellifer-7-yl 1-thio-β-D-glucopyranoside], the IC50 in the data set with A-549 (lung carcinoma) (Homo sapiens, A549, 72 h) is over 1000 µM. Further, the “Fluorescence λmax ex” value in data set [1] (DMF, 0.1 mM) is 332 nm; in data set [1] (PBS pH 7.4, 0.1 mM) it was 332 nm. Further, the “Fluorescence λmax em” value in data set [1] (DMF, 0.1 mM) is reported as 386 nm; in data set [1] (PBS pH 7.4, 0.1 mM), 402 nm. The figures for the “Relative quantum yield Φ” value in data set [1] (DMF) and in data set [1] (PBS) were 0.198 and 0.242, respectively.

On to `Cc1cc(=O)oc2cc(S[C@@H]3O[C@H](CO)[C@H](O)[C@H](O)[C@H]3O)ccc12` [Compound S-4, 4-Methylumbellifer-7-yl 1-thio-β-D-galactopyranoside], for which the IC50 in the data set on A-549 (lung carcinoma) (Homo sapiens, A549, 72 h) was over 1000 µM. Moreover, the “Fluorescence λmax ex” value came to 334 nm in data set [1] (DMF, 0.1 mM) and 332 nm in data set [1] (PBS pH 7.4, 0.1 mM). Further, the “Fluorescence λmax em” value in data set [1] (DMF, 0.1 mM) turned out to be 388 nm; in data set [1] (PBS pH 7.4, 0.1 mM), 402 nm. In addition, the “Relative quantum yield Φ” value in data set [1] (DMF) was determined as 0.223; in data set [1] (PBS), 0.271.

On to `Cc1cc(=O)oc2cc(S[C@@H]3O[C@H](C)[C@H](O)[C@H](O)[C@H]3O)ccc12` [Compound S-5, 4-Methylumbellifer-7-yl 1-thio-β-D-fucopyranoside], for which the IC50 with A-549 (lung carcinoma) (Homo sapiens, A549, 72 h) is over 1000 µM. Moreover, the “Fluorescence λmax ex” value in data set [1] (DMF, 0.1 mM) is given as 334 nm; in data set [1] (PBS pH 7.4, 0.1 mM), 326 nm. In addition, the “Fluorescence λmax em” value in data set [1] (DMF, 0.1 mM) was 386 nm; in data set [1] (PBS pH 7.4, 0.1 mM), 402 nm. The “Relative quantum yield Φ” value came to 0.183 in data set [1] (DMF) and 0.228 in data set [1] (PBS).

As to `Cc1cc(=O)oc2cc(S[C@H]3O[C@H](CO)[C@H](O)[C@H](O)[C@H]3O)ccc12` [Compound S-6, 4-Methylumbellifer-7-yl 1-thio-α-D-galactopyranoside], the IC50 with A-549 (lung carcinoma) (Homo sapiens, A549, 72 h) was over 1000 µM. In addition, the “Fluorescence λmax ex” value was 334 nm in data set [1] (DMF, 0.1 mM) and 332 nm in data set [1] (PBS pH 7.4, 0.1 mM). Further, the “Fluorescence λmax em” value in data set [1] (DMF, 0.1 mM) was 388 nm; in data set [1] (PBS pH 7.4, 0.1 mM), 416 nm. Also, the “Relative quantum yield Φ” value in data set [1] (DMF) came to 0.223; in data set [1] (PBS), 0.185.
